ChEMBL document CHEMBL3046165, “Synthesis of new cyclic imides derivatives with potential hypolipidemic activity” (Med Chem Res, 2012)

How the values were obtained:
Rattus norvegicus [1] = assay: Toxicity in triton WR-1339-induced Rattus norvegicus albino Wistar (rat) hyperlipidemic model assessed as reduction of serum HDL level at 150 mg/kg, po qd after 24 hr; type: organism-based; parameters: dose 150 mg/kg, route oral; details: in vivo
Rattus norvegicus [2] = assay: Toxicity in triton WR-1339-induced Rattus norvegicus albino Wistar (rat) hyperlipidemic model assessed as increase of serum total triglyceride level at 150 mg/kg, po qd after 24 hr; type: organism-based; parameters: dose 150 mg/kg, route oral; details: in vivo
Rattus norvegicus [3] = assay: Toxicity in triton WR-1339-induced Rattus norvegicus albino Wistar (rat) hyperlipidemic model assessed as increase of serum LDL level at 150 mg/kg, po qd after 24 hr; type: organism-based; parameters: dose 150 mg/kg, route oral; details: in vivo
Rattus norvegicus [4] = assay: Toxicity in triton WR-1339-induced Rattus norvegicus albino Wistar (rat) hyperlipidemic model assessed as increase of serum total cholesterol level at 150 mg/kg, po qd after 24 hr; type: organism-based; parameters: dose 150 mg/kg, route oral; details: in vivo
Rattus norvegicus [5] = assay: Hypolipidemic activity in triton WR-1339-induced Rattus norvegicus albino Wistar (rat) hyperlipidemic model assessed as increase of serum HDL level at 150 mg/kg, po qd after 24 hr; type: functional
Rattus norvegicus [6] = assay: Hypolipidemic activity in triton WR-1339-induced Rattus norvegicus albino Wistar (rat) hyperlipidemic model assessed as reduction of serum total triglyceride level at 150 mg/kg, po qd after 24 hr; type: functional; parameters: scale not given: the % may be the effect or the level left
Rattus norvegicus [7] = assay: Hypolipidemic activity in triton WR-1339-induced Rattus norvegicus albino Wistar (rat) hyperlipidemic model assessed as reduction of serum total cholesterol level at 150 mg/kg, po qd after 24 hr; type: functional; parameters: scale not given: the % may be the effect or the level left

## CCCNC(=O)C(C)N1C(=O)c2ccccc2C1=O (centres undefined)
Rattus norvegicus [1]
  Activity: Toxic
Rattus norvegicus [2]
  Activity: Toxic
Rattus norvegicus [3]
  Activity: 35.5%
Rattus norvegicus [4]
  Activity: Toxic

## CC(C(=O)NCCc1ccccc1)N1C(=O)c2ccccc2C1=O (centres undefined)
Rattus norvegicus [1]
  Activity: Toxic
Rattus norvegicus [2]
  Activity: Toxic
Rattus norvegicus [3]
  Activity: 35.5%
Rattus norvegicus [4]
  Activity: Toxic

## CC(C(=O)NCc1ccccc1)N1C(=O)c2cccc3cccc(c23)C1=O (centres undefined)
Rattus norvegicus [3]
  Activity: 4.5%
Rattus norvegicus [5]
  Activity: 29.3%

## CCNC(=O)C(C)N1C(=O)c2cccc3cccc(c23)C1=O (centres undefined)
Rattus norvegicus [3]
  Activity: 4.5%
Rattus norvegicus [5]
  Activity: 29.3%

## CC(C)OC(=O)C(C)(C)Oc1ccc(C(=O)c2ccc(Cl)cc2)cc1 [FENOFIBRATE]
Rattus norvegicus [3]
  Activity: 13%
Rattus norvegicus [6]
  Activity: 20%
Rattus norvegicus [7]
  Activity: 23%

## CCNC(=O)c1ccccc1C(=O)NC(C)C(=O)NCC (centres undefined)
Rattus norvegicus [6]
  Activity: 46.5%
Rattus norvegicus [7]
  Activity: 48.6%

## CC(C(=O)Nc1ccccc1)N1C(=O)c2cccc3cccc(c23)C1=O (centres undefined)
Rattus norvegicus [3]
  Activity: 4.5%
Rattus norvegicus [5]
  Activity: 29.3%

## CC(C)NC(=O)C(C)N1C(=O)c2ccccc2C1=O (centres undefined)
Rattus norvegicus [1]
  Activity: Toxic
Rattus norvegicus [2]
  Activity: Toxic
Rattus norvegicus [3]
  Activity: 35.5%
Rattus norvegicus [4]
  Activity: Toxic

## CC(C(=O)NCc1ccccc1)N1C(=O)c2ccccc2C1=O (centres undefined)
Rattus norvegicus [1]
  Activity: Toxic
Rattus norvegicus [2]
  Activity: Toxic
Rattus norvegicus [3]
  Activity: 35.5%
Rattus norvegicus [4]
  Activity: Toxic

## CC(C(=O)Nc1ccccc1)N1C(=O)c2ccccc2C1=O (centres undefined)
Rattus norvegicus [6]
  Activity: <24%
Rattus norvegicus [7]
  Activity: <24%

## CC(C(=O)NCc1ccccc1)n1c(=O)c2ccccc2c2ccccc2c1=O (centres undefined)
Rattus norvegicus [3]
  Activity: 4.5%
Rattus norvegicus [5]
  Activity: 29.3%

## CC(C(=O)N1CCCC1)N1C(=O)c2ccccc2C1=O (centres undefined)
Rattus norvegicus [1]
  Activity: Toxic
Rattus norvegicus [2]
  Activity: Toxic
Rattus norvegicus [3]
  Activity: 35.5%
Rattus norvegicus [4]
  Activity: Toxic

## CCNC(=O)C(C)N1C(=O)c2ccccc2C1=O (centres undefined)
Rattus norvegicus [1]
  Activity: Toxic
Rattus norvegicus [2]
  Activity: Toxic
Rattus norvegicus [3]
  Activity: 35.5%
Rattus norvegicus [4]
  Activity: Toxic
